Results on 33 compounds are retold here after ChEMBL document CHEMBL1152349, “Optimization of 2-piperidin-4-yl-acetamides as melanin-concentrating hormone receptor 1 (MCH-R1) antagonists: Designing out hERG inhibition” (Bioorg Med Chem Lett, 2009).

The structures appear in SMILES notation. A value given as a limit tells only on which side of the number the result lay.

Series [1] concerns the target T1, Melanin-concentrating hormone receptor 1 (Homo sapiens, UniProt Q99705). As to the kind of experiment: Displacement of [125I]MCH from human MCHR1 expressed in HEK293 cells. The series is classed as cell-based. In general terms: Displacement assays read how much labelled ligand stays bound in the presence of the test substance.
Series [2] addresses T2, Voltage-gated inwardly rectifying potassium channel KCNH2 (Homo sapiens, UniProt Q12809). As to the kind of experiment: Inhibition of human ERG expressed in CHO cells by patch clamp assay. The series is classed as cell-based.
Series [3] addresses T2, Voltage-gated inwardly rectifying potassium channel KCNH2. As to the kind of experiment: Inhibition of human ERG activation expressed in CHO cells by rubidium efflux assay. Type of series: cell-based.
A short description of series [4]: Dissociation constant, pKa by pressure assisted capillary electrophoresis. The series is classed as physicochemical.
Series [5] has as its target T1, Melanin-concentrating hormone receptor 1. Kind of series: Antagonist activity at human MCHR1 expressed in HEK293 cells assessed as [35S]GTPgammaS accumulation. The series is classed as functional, cell-based. In general terms: Binding of GTPγS marks nucleotide exchange on a G protein.
The target in series [6] is Sodium channel protein type 5 subunit alpha (Homo sapiens, UniProt Q14524). Kind of series: Inhibition of NaV1.5 sodium channel expressed in CHO cells by patch clamp assay. The series is classed as cell-based.
Chain of Sodium channel protein type 5 subunit alpha (Q14524 whole entry): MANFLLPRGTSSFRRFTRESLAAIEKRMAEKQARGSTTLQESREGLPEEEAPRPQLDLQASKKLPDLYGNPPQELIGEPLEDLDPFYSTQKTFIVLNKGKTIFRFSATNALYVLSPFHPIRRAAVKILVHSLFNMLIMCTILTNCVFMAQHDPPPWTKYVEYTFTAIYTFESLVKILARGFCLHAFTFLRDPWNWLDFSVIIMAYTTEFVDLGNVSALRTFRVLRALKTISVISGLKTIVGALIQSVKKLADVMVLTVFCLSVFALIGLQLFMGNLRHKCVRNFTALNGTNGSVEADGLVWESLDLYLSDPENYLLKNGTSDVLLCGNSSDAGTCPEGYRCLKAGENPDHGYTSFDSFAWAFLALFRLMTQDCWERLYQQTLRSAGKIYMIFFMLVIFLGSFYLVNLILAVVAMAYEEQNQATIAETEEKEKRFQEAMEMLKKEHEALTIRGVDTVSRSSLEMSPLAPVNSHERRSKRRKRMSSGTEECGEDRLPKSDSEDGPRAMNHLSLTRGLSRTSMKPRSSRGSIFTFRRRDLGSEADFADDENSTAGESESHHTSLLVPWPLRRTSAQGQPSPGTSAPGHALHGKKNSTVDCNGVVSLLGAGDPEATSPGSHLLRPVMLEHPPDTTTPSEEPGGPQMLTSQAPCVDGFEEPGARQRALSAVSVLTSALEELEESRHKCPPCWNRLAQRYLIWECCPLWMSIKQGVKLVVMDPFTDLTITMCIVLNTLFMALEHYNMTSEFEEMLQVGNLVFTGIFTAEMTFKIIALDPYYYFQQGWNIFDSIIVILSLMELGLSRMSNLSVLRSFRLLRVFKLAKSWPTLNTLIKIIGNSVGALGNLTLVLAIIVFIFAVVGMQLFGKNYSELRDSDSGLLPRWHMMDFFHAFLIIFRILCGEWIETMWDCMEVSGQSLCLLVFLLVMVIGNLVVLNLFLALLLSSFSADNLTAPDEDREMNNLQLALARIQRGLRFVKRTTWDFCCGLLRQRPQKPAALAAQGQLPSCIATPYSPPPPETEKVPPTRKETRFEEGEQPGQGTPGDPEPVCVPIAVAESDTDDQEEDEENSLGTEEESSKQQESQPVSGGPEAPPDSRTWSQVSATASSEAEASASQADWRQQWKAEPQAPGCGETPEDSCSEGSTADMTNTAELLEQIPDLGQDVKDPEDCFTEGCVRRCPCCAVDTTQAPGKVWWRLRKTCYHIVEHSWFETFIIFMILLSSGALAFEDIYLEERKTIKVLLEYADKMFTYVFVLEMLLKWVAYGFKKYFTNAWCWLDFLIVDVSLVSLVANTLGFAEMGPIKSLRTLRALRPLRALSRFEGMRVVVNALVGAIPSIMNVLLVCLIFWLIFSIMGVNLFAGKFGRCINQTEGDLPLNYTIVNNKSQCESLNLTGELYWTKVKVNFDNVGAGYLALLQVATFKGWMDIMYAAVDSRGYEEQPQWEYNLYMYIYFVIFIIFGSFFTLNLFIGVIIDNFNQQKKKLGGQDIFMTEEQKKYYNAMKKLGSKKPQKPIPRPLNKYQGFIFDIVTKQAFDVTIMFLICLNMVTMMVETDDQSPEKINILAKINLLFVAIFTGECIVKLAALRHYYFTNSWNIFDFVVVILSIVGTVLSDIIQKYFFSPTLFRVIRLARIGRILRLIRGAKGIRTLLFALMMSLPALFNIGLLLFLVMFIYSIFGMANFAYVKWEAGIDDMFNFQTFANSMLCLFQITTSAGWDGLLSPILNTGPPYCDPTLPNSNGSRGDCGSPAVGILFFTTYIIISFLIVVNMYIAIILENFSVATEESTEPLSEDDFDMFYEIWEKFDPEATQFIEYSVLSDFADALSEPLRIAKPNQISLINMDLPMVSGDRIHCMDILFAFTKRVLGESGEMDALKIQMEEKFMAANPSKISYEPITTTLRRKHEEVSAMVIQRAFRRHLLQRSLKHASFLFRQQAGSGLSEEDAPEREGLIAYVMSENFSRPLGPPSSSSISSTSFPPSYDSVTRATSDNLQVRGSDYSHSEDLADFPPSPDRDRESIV
The next series deals with Liver microsomes. Kind of series: Intrinsic clearance in human liver microsomes. The series is classed as ADME, Microsome. For orientation: Liver microsomes are vesicles of endoplasmic reticulum, rich in cytochrome P450 enzymes.
Series [7] concerns the target Melanin-concentrating hormone receptor 2 (Homo sapiens, UniProt Q969V1). As to the kind of experiment: Displacement of [125I]MCH from human MCHR2 expressed in CHO cells. The series is classed as cell-based.
Another series concerns Mus musculus. Kind of series: Antiobesity activity in DIO mouse model assessed as reduction in weight at 50 umol/kg, po once daily after 21 days. On the set-up: scale not given: the % may be the effect or the level left. Type of series: functional.

T2 sequence (Q12809 whole entry): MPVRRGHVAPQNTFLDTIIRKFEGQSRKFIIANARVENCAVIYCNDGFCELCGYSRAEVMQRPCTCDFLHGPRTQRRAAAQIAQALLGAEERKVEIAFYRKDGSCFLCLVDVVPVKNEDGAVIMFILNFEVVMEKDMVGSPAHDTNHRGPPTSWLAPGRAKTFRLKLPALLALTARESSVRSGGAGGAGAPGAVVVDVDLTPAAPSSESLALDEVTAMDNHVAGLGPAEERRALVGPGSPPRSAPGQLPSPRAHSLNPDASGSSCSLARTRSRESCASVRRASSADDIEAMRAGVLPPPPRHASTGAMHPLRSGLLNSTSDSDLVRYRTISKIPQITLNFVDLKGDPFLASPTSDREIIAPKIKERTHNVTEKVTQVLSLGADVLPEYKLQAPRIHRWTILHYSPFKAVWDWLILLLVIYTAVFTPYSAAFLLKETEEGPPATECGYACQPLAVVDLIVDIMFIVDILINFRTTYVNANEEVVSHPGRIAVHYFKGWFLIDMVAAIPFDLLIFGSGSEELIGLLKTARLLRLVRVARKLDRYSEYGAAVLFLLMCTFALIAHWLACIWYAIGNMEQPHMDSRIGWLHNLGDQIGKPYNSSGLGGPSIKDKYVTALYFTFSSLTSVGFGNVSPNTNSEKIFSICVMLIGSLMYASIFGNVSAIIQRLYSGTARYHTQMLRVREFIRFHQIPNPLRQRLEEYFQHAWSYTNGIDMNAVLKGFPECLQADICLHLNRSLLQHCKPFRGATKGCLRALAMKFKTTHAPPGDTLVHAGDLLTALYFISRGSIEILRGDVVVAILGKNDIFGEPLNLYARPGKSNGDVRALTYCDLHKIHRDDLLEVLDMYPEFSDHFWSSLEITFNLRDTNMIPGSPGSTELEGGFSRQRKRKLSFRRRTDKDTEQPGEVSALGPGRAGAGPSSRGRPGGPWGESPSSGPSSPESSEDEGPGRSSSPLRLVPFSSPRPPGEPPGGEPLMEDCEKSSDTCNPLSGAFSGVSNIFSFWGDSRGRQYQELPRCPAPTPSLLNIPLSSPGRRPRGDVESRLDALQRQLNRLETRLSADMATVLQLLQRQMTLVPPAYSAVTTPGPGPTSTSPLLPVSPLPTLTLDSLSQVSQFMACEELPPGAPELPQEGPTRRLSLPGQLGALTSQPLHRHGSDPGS
T1 sequence (Q99705 whole entry): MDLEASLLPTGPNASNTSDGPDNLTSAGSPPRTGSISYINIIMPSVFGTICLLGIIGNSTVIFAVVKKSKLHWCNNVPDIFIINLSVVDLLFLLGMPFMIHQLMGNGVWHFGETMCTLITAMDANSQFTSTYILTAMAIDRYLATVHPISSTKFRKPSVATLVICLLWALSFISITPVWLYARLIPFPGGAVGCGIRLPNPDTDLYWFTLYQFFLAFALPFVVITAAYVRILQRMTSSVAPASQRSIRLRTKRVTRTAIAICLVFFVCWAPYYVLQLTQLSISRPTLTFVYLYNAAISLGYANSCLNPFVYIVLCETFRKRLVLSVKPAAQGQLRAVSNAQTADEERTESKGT
Chain of Melanin-concentrating hormone receptor 2 (Q969V1 whole entry): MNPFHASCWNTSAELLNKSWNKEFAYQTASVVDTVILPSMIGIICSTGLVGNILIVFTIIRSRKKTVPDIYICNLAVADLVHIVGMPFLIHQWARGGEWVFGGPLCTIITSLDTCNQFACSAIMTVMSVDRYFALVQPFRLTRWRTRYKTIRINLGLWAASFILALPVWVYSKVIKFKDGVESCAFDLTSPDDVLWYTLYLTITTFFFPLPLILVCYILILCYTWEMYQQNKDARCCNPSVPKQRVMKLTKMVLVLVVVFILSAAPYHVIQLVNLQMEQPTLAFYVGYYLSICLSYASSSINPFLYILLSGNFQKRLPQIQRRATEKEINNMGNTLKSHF

The term IC50 denotes the point on the concentration scale where inhibition reaches its midpoint. Regarding `CN(CCC(=O)N1CCCC1)C(=O)CC1CCN(Cc2ccn(-c3ccc(C(F)(F)F)cc3)c2)CC1`, the IC50 in series [1] was 0.142 µM.

Consider `O=C(CC1CCN(Cc2ccn(-c3ccc(C(F)(F)F)cc3)c2)CC1)NC(c1ccncc1)c1ccc(Cl)cc1` (stereo not given), for which the IC50 in [1] came to 0.017 µM.

As for `O=C(NCCc1ccccn1)C1CCN(Cc2ccn(-c3ccc(C(F)(F)F)cc3)c2)CC1`, the IC50 in series [2] worked out at 10 µM; in series [1], 0.339 µM.

In the case of `O=C(NCC1(O)CCCCC1)C1CCN(Cc2ccn(-c3ccc(C(F)(F)F)cc3)c2)CC1`, the results for the half-inhibitory concentration (IC50) in [2] and in series [1] were 11.7 µM and 0.04 µM, respectively.

A word on the pKa: it is the negative logarithm of the acid dissociation constant. In the case of `O=C(NCc1ccc(Cl)cc1Cl)N1CCN(Cc2ccn(-c3ccc(C(F)(F)F)cc3)c2)CC1`, the half-inhibitory concentration (IC50) in series [1] was 0.008 µM; in series [3] it was 1.6 µM. Also, the pKa in [4] was found to be 6.2.

As for `O=C(CC1CCN(Cc2ccn(-c3ccc(C(F)(F)F)cc3)c2)CC1)NC(c1ccccc1)c1ccccn1` (stereo not given), the IC50 in [2] is 2.3 µM; in [1] it was 0.041 µM.

As for `O=C(CC1CCN(Cc2ccn(-c3ccc(C(F)(F)F)cc3)c2)CC1)N1CCCC(C(=O)N2CCCC2)C1` (stereo not given), the IC50 was 31 µM in [2] and 0.071 µM in series [1].

With `O=C(CC1CCN(Cc2ccn(-c3ccc(C(F)(F)F)cc3)c2)CC1)N1CCN(C(=O)N2CCCC2)CC1`, the IC50 in series [2] came out at 14 µM; in series [1], 0.417 µM.

Consider `O=C(CC1CCN(Cc2ccc(-c3ccc(Cl)cc3)o2)CC1)N1CCCC(CO)C1` (stereo not given), for which the half-inhibitory concentration (IC50) in series [2] is 2.34 µM; in [1], 0.597 µM.

With `O=C(CC1CCN(Cc2ccn(-c3ccc(C(F)(F)F)cc3)c2)CC1)NC(c1ccc(F)cc1)c1c[nH]c(=O)c(Cl)c1` (stereo not given), the IC50 in [2] is above 31.6 µM; in series [1], 0.006 µM; in series [5], 0.021 µM; in series [6], above 31.6 µM; in series [7], 4.6 µM. This compound also came in with a clearance in the series on Liver microsomes below 15 µL/min/mg.

Turning to `O=C(NC1CCN(Cc2ccn(-c3ccc(C(F)(F)F)cc3)c2)CC1)NC(c1ccccc1)c1ccccc1`, the IC50 in series [2] worked out at 3.8 µM; in series [1], 0.039 µM. The pKa in series [4] was 9.2.

In turn, `O=C(C1CCCCN1C(=O)CC1CCN(Cc2ccn(-c3ccc(C(F)(F)F)cc3)c2)CC1)N1CCCC1` (stereo not given) had a half-maximal inhibitory concentration (IC50) in series [1] of 0.066 µM.

In the case of `O=C(CC1CCN(Cc2ccn(-c3ccc(C(F)(F)F)cc3)c2)CC1)NC(c1ccc(F)cc1)c1ccc[n+]([O-])c1` (stereo not given), the half-maximal inhibitory concentration (IC50) in [2] was above 31.6 µM; in series [1], 0.021 µM.

As to `O=C(CC1CCN(Cc2ccn(-c3ccc(C(F)(F)F)cc3)c2)CC1)NC(c1ccc(F)cc1)c1cccnc1` (stereo not given), the half-maximal inhibitory concentration (IC50) came out at 2.17 µM in series [2] and 0.028 µM in series [1].

`Cc1nccn1CC(NC(=O)CC1CCN(Cc2ccn(-c3ccc(C(F)(F)F)cc3)c2)CC1)c1ccccc1` (stereo not given): the IC50 in [2] was determined as 26.6 µM; in series [1], 0.065 µM.

For `O=C(CC1CCN(Cc2ccn(-c3ccc(C(F)(F)F)cc3)c2)CC1)NC(c1ccccc1)c1cnc[nH]1` (stereo not given), the half-inhibitory concentration (IC50) was found to be 11.4 µM in [2] and 0.017 µM in [1].

In the case of `COCC(O)CN(Cc1ccc(F)cc1)C(=O)CC1CCN(Cc2ccc(-c3ccc(Cl)cc3)o2)CC1` (stereo not given), the 50% inhibitory concentration (IC50) in series [2] is 1.09 µM; in series [1] it was 0.15 µM.

As to `O=C(CC1CCN(Cc2ccc(-c3ccc(Cl)cc3)o2)CC1)NCC(O)C(F)(F)F` (stereo not given), the results for the IC50 in series [2] and in [1] were 1.02 µM and 0.815 µM, respectively.

Take `O=C(CC1CCN(Cc2ccn(-c3ccc(C(F)(F)F)cc3)c2)CC1)NC(c1ccc(F)cc1)c1ccc(=O)[nH]c1` (stereo not given): the 50% inhibitory concentration (IC50) is above 31.6 µM in series [2], 0.002 µM in [1] and 0.025 µM in series [5].

With `CCCCC(NC(=O)CC1CCN(Cc2ccn(-c3ccc(C(F)(F)F)cc3)c2)CC1)c1ccc(=O)[nH]c1` (stereo not given), the IC50 in [1] stood at 0.001 µM; in [5], 0.019 µM.

`CC(NC(=O)CC1CCN(Cc2ccn(-c3ccc(C(F)(F)F)cc3)c2)CC1)c1ccc(=O)[nH]c1` (stereo not given): the IC50 in series [2] was above 31.6 µM; in series [1] it was 0.067 µM.

With `COc1ccc(C(NC(=O)CC2CCN(Cc3ccn(-c4ccc(C(F)(F)F)cc4)c3)CC2)c2ccc(F)cc2)cn1` (stereo not given), the concentration for half-maximal inhibition (IC50) in series [2] came to 1.75 µM; in series [1] it was 0.002 µM.

`O=C(CC1CCN(Cc2ccn(-c3ccc(C(F)(F)F)cc3)c2)CC1)N1CCOC(C(=O)N2CCCC2)C1` (stereo not given): the 50% inhibitory concentration (IC50) in [1] was determined as 0.173 µM.

Take `O=C(NCc1ccc(Cl)cc1O)C1CCN(Cc2ccn(-c3ccc(C(F)(F)F)cc3)c2)CC1`: the IC50 stood at 1.55 µM in series [2] and 0.022 µM in [1].

`O=C(CN1CCN(Cc2ccn(-c3ccc(C(F)(F)F)cn3)c2)CC1)NC(c1ccc(F)cc1)c1ccc(F)cc1`: the figures for the IC50 in [2] and in [1] were 0.8 µM and 0.055 µM, respectively. In [4], the pKa came out at 6.5.

In the case of `CCCCC(NC(=O)CC1CCN(Cc2ccn(-c3ccc(C(F)(F)F)cc3)c2)CC1)c1ccc(OC)nc1` (stereo not given), the IC50 in series [2] was determined as 1 µM; in series [1] it was 0.005 µM.

In series [1], `O=C(NCc1ccc(O)cc1Cl)C1CCN(Cc2ccn(-c3ccc(C(F)(F)F)cc3)c2)CC1` had a concentration for half-maximal inhibition (IC50) of 0.03 µM.

With `O=C(NCc1ccc(Cl)cc1Cl)C1CCN(Cc2ccn(-c3ccc(C(F)(F)F)cn3)c2)CC1`, the half-maximal inhibitory concentration (IC50) in series [1] came to 0.444 µM; in [3], 3.5 µM. The pKa in [4] is 8.3.

Regarding `O=C(CC1CCN(Cc2ccn(-c3ccc(C(F)(F)F)cn3)c2)CC1)NC(c1ccc(F)cc1)c1ccc(F)cc1`, the IC50 in series [1] stood at 0.013 µM; in series [5], 0.017 µM. In the series with Mus musculus, the Activity worked out at 18.2%. In addition, the pKa in [4] turned out to be 9.1.

`O=C(NCc1c(O)cc(Cl)cc1Cl)C1CCN(Cc2ccn(-c3ccc(C(F)(F)F)cc3)c2)CC1` gave a 50% inhibitory concentration (IC50) in [1] of 0.144 µM.

For `CCN(CC)C(=O)C1CCCN(C(=O)CC2CCN(Cc3ccn(-c4ccc(C(F)(F)F)cc4)c3)CC2)C1` (stereo not given), the figures for the IC50 in series [2] and in [1] were 16 µM and 0.037 µM, respectively.

As for `O=C(CC1CCN(Cc2ccn(-c3ccc(C(F)(F)F)cc3)c2)CC1)N(CCCO)Cc1ccc(F)cc1`, the IC50 in series [2] is 0.63 µM; in series [1], 0.004 µM.

Consider `Cn1cccc1CNC(=O)CC1CCN(Cc2ccn(-c3ccc(C(F)(F)F)cc3)c2)CC1`, for which the half-maximal inhibitory concentration (IC50) in [1] amounted to 0.313 µM.
